Activity calls are given as the source filed them. No cut-off for these calls is given here. Some results are limits rather than exact numbers.

For one data set, the target named is T1, Nitric oxide synthase 3 (Bos taurus, UniProt P29473).
T1 sequence (P29473 whole entry): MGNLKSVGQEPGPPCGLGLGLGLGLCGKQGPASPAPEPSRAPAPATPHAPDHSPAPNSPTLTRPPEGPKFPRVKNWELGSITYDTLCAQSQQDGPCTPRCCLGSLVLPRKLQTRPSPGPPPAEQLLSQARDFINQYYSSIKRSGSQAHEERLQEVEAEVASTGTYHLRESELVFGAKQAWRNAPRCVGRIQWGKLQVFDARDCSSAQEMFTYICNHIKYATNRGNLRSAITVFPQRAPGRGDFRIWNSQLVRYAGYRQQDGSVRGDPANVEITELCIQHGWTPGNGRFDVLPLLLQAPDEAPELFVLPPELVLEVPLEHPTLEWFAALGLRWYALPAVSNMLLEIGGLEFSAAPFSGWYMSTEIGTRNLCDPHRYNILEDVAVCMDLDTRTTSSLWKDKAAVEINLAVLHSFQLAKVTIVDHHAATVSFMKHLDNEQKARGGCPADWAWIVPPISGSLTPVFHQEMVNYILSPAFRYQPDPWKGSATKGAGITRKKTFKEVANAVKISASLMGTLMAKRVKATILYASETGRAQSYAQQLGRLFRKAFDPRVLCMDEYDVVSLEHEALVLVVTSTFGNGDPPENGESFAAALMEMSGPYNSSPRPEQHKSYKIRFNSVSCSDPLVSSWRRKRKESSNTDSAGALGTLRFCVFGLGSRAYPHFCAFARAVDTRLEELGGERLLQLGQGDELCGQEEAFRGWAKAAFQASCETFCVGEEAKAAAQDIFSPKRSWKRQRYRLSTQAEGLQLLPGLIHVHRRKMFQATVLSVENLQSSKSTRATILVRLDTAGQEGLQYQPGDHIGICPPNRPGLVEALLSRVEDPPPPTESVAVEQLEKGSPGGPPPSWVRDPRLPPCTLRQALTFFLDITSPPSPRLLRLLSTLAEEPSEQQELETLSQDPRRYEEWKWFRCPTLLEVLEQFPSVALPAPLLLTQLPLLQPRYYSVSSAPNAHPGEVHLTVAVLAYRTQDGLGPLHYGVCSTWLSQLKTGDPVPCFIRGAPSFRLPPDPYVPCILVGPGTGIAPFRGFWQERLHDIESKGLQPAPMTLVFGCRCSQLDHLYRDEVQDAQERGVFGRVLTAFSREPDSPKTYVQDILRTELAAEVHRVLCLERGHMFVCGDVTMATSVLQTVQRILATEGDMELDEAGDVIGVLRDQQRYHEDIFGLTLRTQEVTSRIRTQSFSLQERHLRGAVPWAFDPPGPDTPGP
The data set is described as follows: Inhibition of recombinant bovine eNOS using [3H]L-arginine as substrate preincubated for 15 mins followed by NADPH addition measured after 20 mins in presence of FMN/FAD by liquid scintillation counting method.

A short description of data set [1]: Selectivity index, ratio of IC50 for recombinant bovine eNOS to IC50 for recombinant mouse iNOS.
In data set [2] the target is T2, Nitric oxide synthase, inducible (Mus musculus, UniProt P29477).
T2 sequence (P29477 whole entry): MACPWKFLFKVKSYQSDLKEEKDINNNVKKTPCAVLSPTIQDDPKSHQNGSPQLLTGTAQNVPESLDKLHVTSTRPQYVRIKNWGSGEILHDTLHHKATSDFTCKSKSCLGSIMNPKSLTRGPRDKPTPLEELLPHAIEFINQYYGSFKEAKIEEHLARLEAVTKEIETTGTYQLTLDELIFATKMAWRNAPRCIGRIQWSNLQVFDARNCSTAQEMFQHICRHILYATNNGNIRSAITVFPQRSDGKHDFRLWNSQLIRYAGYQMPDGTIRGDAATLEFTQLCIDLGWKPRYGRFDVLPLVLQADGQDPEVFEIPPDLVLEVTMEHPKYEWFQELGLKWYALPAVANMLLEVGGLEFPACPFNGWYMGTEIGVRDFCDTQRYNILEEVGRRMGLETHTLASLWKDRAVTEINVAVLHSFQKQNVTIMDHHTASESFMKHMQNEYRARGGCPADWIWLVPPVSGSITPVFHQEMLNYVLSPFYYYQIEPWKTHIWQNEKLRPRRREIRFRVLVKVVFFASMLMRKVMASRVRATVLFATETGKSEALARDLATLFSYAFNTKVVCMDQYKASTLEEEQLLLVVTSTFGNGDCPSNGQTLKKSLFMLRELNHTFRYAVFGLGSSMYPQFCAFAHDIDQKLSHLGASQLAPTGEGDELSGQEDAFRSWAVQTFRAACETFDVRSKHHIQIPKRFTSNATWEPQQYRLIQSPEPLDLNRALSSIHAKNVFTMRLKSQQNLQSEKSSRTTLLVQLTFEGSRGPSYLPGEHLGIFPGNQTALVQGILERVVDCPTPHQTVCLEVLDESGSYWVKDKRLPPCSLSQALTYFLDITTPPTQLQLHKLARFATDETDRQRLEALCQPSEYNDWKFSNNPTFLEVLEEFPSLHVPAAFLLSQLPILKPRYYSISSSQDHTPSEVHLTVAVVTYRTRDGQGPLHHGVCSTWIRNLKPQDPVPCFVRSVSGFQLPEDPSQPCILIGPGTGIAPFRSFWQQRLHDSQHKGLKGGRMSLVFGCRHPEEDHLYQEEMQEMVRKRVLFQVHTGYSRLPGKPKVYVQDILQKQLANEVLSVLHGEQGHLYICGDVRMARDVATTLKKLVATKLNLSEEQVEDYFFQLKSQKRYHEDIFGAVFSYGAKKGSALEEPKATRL
Put plainly: Inhibition of recombinant mouse iNOS using [3H]L-arginine as substrate preincubated for 15 mins followed by NADPH addition measured after 20 mins in presence of FMN/FAD by liquid scintillation counting method.

For data set [3], the system named is C6. Put plainly: Cytotoxicity against rat C6 cells assessed as cell proliferation up to 2 mM after 48 hrs by MTT assay relative to control. Format: functional.
A short description of data set [4]: Cytotoxicity against rat CTX/TNA2 cells assessed as inhibition of cell proliferation at 2 mM after 24 hrs by MTT assay relative to control. In kind it is cell-based.
Data set [5] in a line: Cytotoxicity against rat CTX/TNA2 cells assessed as inhibition of cell proliferation at 1.5 mM after 24 hrs by MTT assay relative to control. Format: cell-based.
The nature of data set [6]: Cytotoxicity against rat CTX/TNA2 cells assessed as inhibition of cell proliferation up to 72 hrs by MTT assay. Format: cell-based. (Tetrazolium assays rely on reduction of a dye to a coloured formazan, in cell work by metabolically active cells.)
Data set [7] deals with C6. Put plainly: Cytotoxicity against rat C6 cells assessed as inhibition of cell proliferation after 24 to 48 hrs by MTT assay. Format: functional, cell-based.
The subject of data set [8] is C6. Put plainly: Cytotoxicity against rat C6 cells assessed as cell proliferation at 0.5 mM after 48 hrs by MTT assay relative to control. Format: functional. As to conditions: C6, 48 h, read-out: Activity.
The subject of data set [9] is C6. Put plainly: Cytotoxicity against rat C6 cells assessed as cell proliferation at 1 mM after 24 hrs by MTT assay relative to control. In kind it is functional. As to conditions: C6, 24 h, read-out: Activity.
Data set [10] concerns C6. The data set is described as follows: Cytotoxicity against rat C6 cells assessed as cell proliferation at 2 mM after 24 hrs by MTT assay relative to control. In kind it is functional. As to conditions: C6, 24 h, read-out: Activity.
Data set [11] relates to C6. The data set is described as follows: Cytotoxicity against rat C6 cells assessed as cell proliferation at 1.5 mM after 24 hrs by MTT assay relative to control. As to conditions: C6, 24 h, read-out: Activity. In kind it is functional.
Data set [12] relates to C6. The data set is described as follows: Cytotoxicity against rat C6 cells assessed as cell proliferation at 0.75 mM after 72 hrs by MTT assay relative to control. Format: functional. As to conditions: C6, 72 h, read-out: Activity.
Data set [13] has as its target Nitric oxide synthase, inducible (Rattus norvegicus) (UniProt Q06518). Put plainly: Ex vivo inhibition of iNOS in mesenteric vascular arteries isolated from LPS-induced septic shock Sprague-Dawley rat model assessed as increase in noradrenaline-mediated vasoconstriction by measuring changes in perfusion pressure at 100 uM preincubated for 30 mins followed by noradrenaline treatment.

Sequence of Nitric oxide synthase, inducible (Rattus norvegicus) (Q06518 whole entry, the tested form may be a part): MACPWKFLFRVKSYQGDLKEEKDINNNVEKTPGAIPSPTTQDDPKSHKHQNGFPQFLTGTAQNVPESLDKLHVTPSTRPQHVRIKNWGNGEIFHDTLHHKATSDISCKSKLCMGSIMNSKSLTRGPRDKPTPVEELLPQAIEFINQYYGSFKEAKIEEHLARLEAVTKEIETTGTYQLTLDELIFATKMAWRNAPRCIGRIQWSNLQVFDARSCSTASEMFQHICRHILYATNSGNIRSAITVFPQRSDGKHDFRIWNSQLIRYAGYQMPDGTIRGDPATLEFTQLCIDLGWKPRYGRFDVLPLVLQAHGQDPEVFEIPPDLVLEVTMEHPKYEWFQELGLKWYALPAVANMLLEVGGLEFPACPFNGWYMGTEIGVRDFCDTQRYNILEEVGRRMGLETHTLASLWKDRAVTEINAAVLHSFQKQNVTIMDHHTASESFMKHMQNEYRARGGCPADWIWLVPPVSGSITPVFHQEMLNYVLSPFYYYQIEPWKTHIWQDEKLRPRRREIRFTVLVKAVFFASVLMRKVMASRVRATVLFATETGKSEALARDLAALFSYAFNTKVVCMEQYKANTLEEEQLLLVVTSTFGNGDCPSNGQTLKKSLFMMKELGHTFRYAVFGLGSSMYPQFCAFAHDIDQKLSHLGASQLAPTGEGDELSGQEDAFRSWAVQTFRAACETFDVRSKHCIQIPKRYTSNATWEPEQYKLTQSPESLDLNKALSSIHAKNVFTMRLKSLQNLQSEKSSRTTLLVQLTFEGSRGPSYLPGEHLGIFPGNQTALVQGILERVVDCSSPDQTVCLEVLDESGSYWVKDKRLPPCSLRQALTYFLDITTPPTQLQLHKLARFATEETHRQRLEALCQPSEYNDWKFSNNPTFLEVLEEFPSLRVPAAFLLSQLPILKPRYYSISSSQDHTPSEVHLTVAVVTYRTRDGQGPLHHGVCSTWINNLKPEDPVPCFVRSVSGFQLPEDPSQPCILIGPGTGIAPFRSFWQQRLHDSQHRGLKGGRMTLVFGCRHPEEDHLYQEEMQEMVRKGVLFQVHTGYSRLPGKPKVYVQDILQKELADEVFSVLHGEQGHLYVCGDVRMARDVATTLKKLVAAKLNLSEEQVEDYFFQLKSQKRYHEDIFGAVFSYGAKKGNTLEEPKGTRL

Broadly, the IC50 is the concentration that gives 50% inhibition. `CC(=N)NCc1cccc(CNC(=O)[C@@H](N)CC(=O)O)c1`: the IC50 at Nitric oxide synthase 3 came to 331 µM; in data set [2], 1.02 µM. Besides, the Ratio IC50 in [1] came out at 323.
Take `CC(=N)NCc1cccc(CNC(=O)[C@@H](N)Cc2ccc(O)cc2)c1`: the IC50 in [2] was above 10 µM.
Regarding `CC(=N)NCc1cccc(CNC(=O)[C@@H](N)CC(N)=O)c1`, the IC50 in data set [2] was above 10 µM.
Regarding `CC(=N)NCc1cccc(CNC(=O)[C@@H](N)Cc2cnc[nH]2)c1`, the IC50 was above 1000 µM on Nitric oxide synthase 3 and 0.534 µM in data set [2]. The Ratio IC50 in data set [1] was above 1870.
Take `CC(=N)NCc1cccc(CNC(=O)[C@@H](N)CS)c1`: in data set [2], the IC50 is above 10 µM.
Regarding `CSCC[C@H](N)C(=O)NCc1cccc(CNC(C)=N)c1`, in [2], the IC50 was above 10 µM.
Same read-out and setting: the result for `CC(=N)NCc1cccc(CNC(=O)[C@@H](N)[C@@H](C)O)c1` reads above 10 µM.
For `CC(=N)NCc1cccc(CNC(=O)[C@@H](N)CCCNC(=N)N)c1`, the IC50 on Nitric oxide synthase 3 was above 1000 µM; in data set [2] it was 0.45 µM. Moreover, the Ratio IC50 in data set [1] was above 2220.
The inhibition is how much of the control response was suppressed. With `CC(=N)NCc1cccc(CN)c1` [1400W], the Activity was 35.66% with C6 [3] and “Dose-dependent effect” in data set [6]. Also, in data set [4], the inhibition at 24 h, 2000 µM was determined as 69.2%. The inhibition at 24 h, 1500 µM in data set [5] is at most 67.4%. Moreover, the inhibition result in the data set on C6 [7] is “Dose-dependent effect”. Moreover, the growth at 500 µM in the data set on C6 [8] worked out at 68.9%. The growth at 1000 µM in the data set with C6 [9] amounted to 83.2%. In addition, the growth at 2000 µM in the data set on C6 [10] came out at 55.2%. Besides, the growth at 1500 µM in the data set on C6 [11] was determined as 70.6%. In the data set with C6 [12], the growth at 750 µM was determined as 64.6%.
Regarding `CC(=N)NCc1cccc(CNC(=O)[C@@H](N)Cc2ccccc2)c1`, in [2], the IC50 is above 10 µM.
In the case of `CC(=N)NCc1cccc(CNC(=O)[C@@H](N)CO)c1`, in data set [2], the IC50 is above 10 µM.
With `CC(=N)NCc1cccc(CNC(=O)[C@@H](N)Cc2c[nH]c3ccccc23)c1`, in data set [2], the IC50 was above 10 µM.
On to `CC(=N)NCc1cccc(CNC(=O)[C@@H](N)CCC(=O)O)c1`, for which the IC50 turned out to be 10 µM on Nitric oxide synthase 3 and 1.23 µM in data set [2]. Also, the Ratio IC50 in [1] came to 8.
Turning to `CC(=N)NCc1cccc(CNC(=O)[C@@H](N)CCCCN)c1`, the IC50 at Nitric oxide synthase 3 was 211 µM; in [2], 0.446 µM. The Ratio IC50 in data set [1] was found to be 473.
Take `CC(=N)NCc1cccc(CNC(=O)[C@H](C)N)c1`: the results for the IC50 (on Nitric oxide synthase 3; in data set [2]) were above 1000 µM and 0.276 µM, respectively. The Ratio IC50 in [1] was above 3600.
As to `CC(=N)NCc1cccc(CNC(=O)[C@@H](N)CCC(N)=O)c1`, the IC50 in data set [2] was above 10 µM.
Regarding `COC(=O)[C@@H](N)CCCNC(=N)N[N+](=O)[O-]`, the inhibition result in data set [13] was “Active”.
Turning to `CC(=N)NCc1cccc(CNC(=O)[C@@H](N)CC(C)C)c1`, the IC50 was determined as 300 µM at Nitric oxide synthase 3 and 0.253 µM in [2]. Moreover, the Ratio IC50 in [1] was 1180.
For `CC(=N)NCc1cccc(CNC(=O)[C@@H](N)C(C)C)c1`, the IC50 in data set [2] was above 10 µM.
In the case of `CC[C@H](C)[C@H](N)C(=O)NCc1cccc(CNC(C)=N)c1`, the IC50 on Nitric oxide synthase 3 was above 1000 µM; in data set [2], 0.17 µM. In addition, in data set [1], the Ratio IC50 is above 5850.

(Values after ChEMBL document CHEMBL4152230, “Discovery of N-{3-[(ethanimidoylamino)methyl]benzyl}-l-prolinamide dihydrochloride: A new potent and selective inhibitor of the inducible nitric oxide synthase as a promising agent for the therapy of malignant glioma” (Eur J Med Chem, 2018).)
